Tests used:
[1] = tested on: patients with daily medication overuse headache (MOH) based on tension-type headache; experiment: Headache diary AUC (headache duration multiplied with headache intensity) in MOH patients, placebo then mirtazapine; assay type: in vivo, human; conditions: for AUC (sum of daily headache duration multiplied with headache intensity): 15 to 30 mg mirtazapine per day for 8 weeks, last four weeks of intake, analgesics allowed; for Reduction of AUC versus placebo: mirtazapine 15 to 30 mg per day vs placebo period, last four weeks
Protocol: (§1) a) Patients had daily medication overuse headache (MOH) originating from daily analgesic use primarily against tension-type headache as primary headache. They were treated first with placebo for 8 weeks, followed by two weeks of wash-out (taking placebo), and then administration of 15 to 30 mg of mirtazapine per day for 8 weeks. During that time they were allowed to continue taking their analgesics as usual, if they felt it was necessary.
At the same time, they had to keep a diary where they had to write down the frequency and duration of their headache as well as the headache intensity. After completion of the study the diaries were evaluated and the daily recordings of headache duration was multiplied with headache intensity to give the “AUC”, which means “area under the curve”. The results shown in table 1 and table 2 below are from the last four weeks of intake of either placebo or mirtazapine. […] It can be seen that both patients experienced improvement of their headache upon administration of mirtazapine.
FIG. 1 depicts the subjective well-being of patients, i.e. decreased number of headache attacks, shorter headache attacks with lower headache intensity. The lower the count of the y-axis, the better is the subjective well-being. AUC means area under the curve. AUC was calculated as the sum of the daily recordings of headache duration multiplied with headache intensity.

[2] = tested on: patients with daily medication overuse headache (MOH) based on tension-type headache; experiment: Intake of overused analgesic medication recorded by the same MOH patients; assay type: in vivo, human; conditions: for Analgesics Usage: 15 to 30 mg mirtazapine per day for 8 weeks, last four weeks of intake; for Reduction of Analgesics Usage versus placebo: mirtazapine 15 to 30 mg per day vs placebo period, last four weeks
Protocol: as §1
b) Moreover, the intake of overused analgesic medication was recorded by the same patients and during the time frame as described above in (a). Patient 1 reduced the intake of overused medication by 80% (Table 2). As for patient 2, the reduction is 15%, whereby both patients additionally benefit from improved well-being, i.e. from decreased number of headache attacks, shorter headache attacks with lower headache intensity (see above).

CN1CCN2c3ncccc3Cc3ccccc3C2C1 (racemic) [Mirtazapine, (RS)-(±)-2-methyl-1,2,3,4,10,14b-hexahydropyrazino[2,1-a]pyrido[2,3-c][2]benzazepine]
AUC (sum of daily headache duration multiplied with headache intensity) ([1]; Patient 1): 420
Reduction of AUC versus placebo ([1]; Patient 1): 62%
AUC (sum of daily headache duration multiplied with headache intensity) ([1]; Patient 2): 895
Reduction of AUC versus placebo ([1]; Patient 2): 34%
Analgesics Usage ([2]; Patient 1): 2
Reduction of Analgesics Usage versus placebo ([2]; Patient 1): 80%
Reduction of Analgesics Usage versus placebo ([2]; Patient 1, listed as mirtazapine): 80%
Analgesics Usage ([2]; Patient 2): 47
Reduction of Analgesics Usage versus placebo ([2]; Patient 2): 15%
Reduction of Analgesics Usage versus placebo ([2]; Patient 2, listed as mirtazapine): 15%
